Measurements from ChEMBL document CHEMBL1127649, “Protein kinase C. Modeling of the binding site and prediction of binding constants” (J Med Chem, 1994).
pKi: −log10 of the molar value.

Target: Protein kinase C alpha type (Homo sapiens, UniProt P17252)
Assay: Binding affinity (Ki) towards Protein kinase C

SMILES | pKi
CCCCCCCCCCCCCC(=O)O[C@H]1CC(=O)O[C@@H]1CO | 5.28
CCCCCCCCCCCCCC(=O)OC[C@H](CO)OC(C)=O | 5.89
CCCCCCCCCCCCCC(=O)O[C@H]1CC(=O)O[C@H]1CO | 4.51
CCCCCCC(=O)O[C@@H]1CC(=O)O[C@H]1CO | 3.73
CCCCCCCCCCC(=O)O[C@@H]1CC(=O)O[C@H]1CO | 5.39
CCCCCCCCCCC/C=C1/C(=O)O[C@@H](CO)[C@@]12CCC(=O)O2 | 4.87
CCCCCCCCCCCC[C@@H]1C(=O)O[C@]2(CO)CC(=O)O[C@H]12 | 5.12
CCCCCCCCCCC[C@H]1C(=O)O[C@@]2(CO)COC(=O)[C@@H]12 | 4.66
CCCCCCCCCCC[C@@H]1C(=O)O[C@H]2[C@@H]1C(=O)O[C@@H]2CO | 4.56
CCCCCCCCCCCCCC(=O)C1CC(=O)O[C@H]1CO (stereo partly specified) | 5.60
CCCCCCCCCCCCC1C(=O)O[C@@H](CO)[C@@]12CCC(=O)O2 (stereo partly specified) | 4.12
CCCCCCCCCCCCCCCCCCC(=O)O[C@@H]1CC(=O)O[C@H]1CO | 5.06
CO[C@@H](CC[C@H](C)[C@H]1O[C@@]23CC(OC(=O)C[C@H]([C@@H](C)O)OC(=O)C[C@](O)(O2)[C@H](C)CC3(C)C)[C@@H]1C)c1cccc(O)c1 | 7.70
CCCCCCCCCCCCCC(=O)O[C@@H]1CC(=O)O[C@@H]1CO | 3.52
CC(=O)O[C@@H]1CC(=O)O[C@H]1CO | < 2.77
CCCCCCCCCCC[C@@H]1C(=O)O[C@]2(CO)COC(=O)[C@H]12 | 5.11
